Reference: ChEMBL document CHEMBL1201862, “PubChem BioAssay data set” (2004)
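Compound exposure: 48 hours, 5 concentrations, 96-well plates. At the GI50, growth is halved.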 The source made the active and inactive calls. Cut-off read from the data, not from the text of the source: active = GI50 up to about 1.1 µM and inactive = higher.

How the values were obtained:
Experiment in all cases: NCI tumour cell line growth inhibition, 48 h
786-0 = tested on: 786-0
HL-60 = tested on: HL-60
KM12 = tested on: KM12
MCF7 = tested on: MCF7
NCI-H226 = tested on: NCI-H226
NCI-H23 = tested on: NCI-H23
OVCAR-3 = tested on: OVCAR-3
OVCAR-5 = tested on: OVCAR-5
PC-3 = tested on: PC-3
RPMI-8226 = tested on: RPMI-8226
SF-539 = tested on: SF-539
SNB-75 = tested on: SNB-75
SW-620 = tested on: SW-620
TK-10 = tested on: TK-10
UACC-257 = tested on: UACC-257
UACC-62 = tested on: UACC-62
UO-31 = tested on: UO-31
Malme-3M = tested on: Malme-3M
BT-549 = tested on: BT-549
MDA-N = tested on: MDA-N

Measured: GI50

CC(C)(C)c1ccc(O)c(C(c2ccc([N+](=O)[O-])cc2)c2cc(C(C)(C)C)ccc2O)c1
inactive: 786-0 2.04 µM | HL-60 2.23 µM | KM12 1.89 µM | MCF7 2 µM | NCI-H226 1.78 µM | NCI-H23 1.99 µM | OVCAR-3 1.79 µM | OVCAR-5 1.82 µM | PC-3 1.85 µM | RPMI-8226 2.37 µM | SF-539 1.89 µM | SNB-75 2.05 µM | SW-620 2.11 µM | TK-10 2.53 µM | UACC-257 1.79 µM | UACC-62 1.66 µM | UO-31 1.95 µM

CC1=C2C(O)C(C(C)C(=O)NCC(C)C)CCC2(C)C=CC1=O (configuration not stated)
inactive: HL-60 > 100 µM | KM12 > 100 µM | MCF7 > 100 µM | NCI-H226 > 100 µM | NCI-H23 > 100 µM | OVCAR-3 > 100 µM | OVCAR-5 > 100 µM | RPMI-8226 > 100 µM | SF-539 > 100 µM | SNB-75 > 100 µM | SW-620 > 100 µM | UACC-257 > 100 µM | UACC-62 > 100 µM | UO-31 > 100 µM

O=C1c2ccccc2OCC1/C=N/O (configuration not stated)
inactive: HL-60 > 100 µM | KM12 96.8 µM | MCF7 29.6 µM | Malme-3M > 100 µM | NCI-H226 > 100 µM | NCI-H23 > 100 µM | OVCAR-3 > 100 µM | OVCAR-5 > 100 µM | RPMI-8226 > 100 µM | SF-539 76 µM | SNB-75 > 100 µM | SW-620 > 100 µM | UACC-257 > 56.1 µM | UACC-62 > 100 µM | UO-31 > 100 µM

OCN(CO)c1ccc2c(c1)Cc1cc(F)ccc1-2
inactive: 786-0 30.1 µM | HL-60 29.1 µM | KM12 17.8 µM | MCF7 18.6 µM | Malme-3M 18.1 µM | NCI-H226 15.7 µM | NCI-H23 33.3 µM | OVCAR-3 13.9 µM | OVCAR-5 19.1 µM | PC-3 16.7 µM | SF-539 22.3 µM | SNB-75 19.1 µM | SW-620 12.4 µM | TK-10 18.7 µM | UACC-257 18.7 µM | UACC-62 16.6 µM | UO-31 19.6 µM

CN(C)c1ccc(O[Si](Oc2ccc(N(C)C)cc2)(Oc2ccc(N(C)C)cc2)Oc2ccc(N(C)C)cc2)cc1
inactive: 786-0 > 100 µM | HL-60 32.9 µM | KM12 71.6 µM | Malme-3M > 100 µM | NCI-H226 > 100 µM | NCI-H23 99.5 µM | OVCAR-3 51.6 µM | OVCAR-5 > 100 µM | RPMI-8226 > 100 µM | SF-539 > 100 µM | SNB-75 > 100 µM | SW-620 > 100 µM | TK-10 > 100 µM | UACC-257 85.1 µM | UACC-62 > 100 µM | UO-31 > 100 µM

CC1=CC2C(C(C)C)CC1C1C(=O)OC(=O)C21 (configuration not stated)
inactive: 786-0 > 100 µM | BT-549 84.1 µM | HL-60 23.3 µM | MCF7 > 100 µM | Malme-3M 52 µM | NCI-H226 > 100 µM | NCI-H23 > 100 µM | OVCAR-3 23.2 µM | OVCAR-5 > 100 µM | PC-3 76.6 µM | SF-539 > 100 µM | SNB-75 > 100 µM | SW-620 86.9 µM | TK-10 45.8 µM | UACC-257 > 100 µM | UACC-62 > 100 µM | UO-31 > 100 µM

Cc1cccc2c1C(=O)C1(Cc3ccccc3C1=O)C2 (configuration not stated)
inactive: 786-0 > 100 µM | HL-60 > 100 µM | MCF7 > 100 µM | MDA-N > 100 µM | Malme-3M > 100 µM | NCI-H226 > 100 µM | NCI-H23 > 100 µM | OVCAR-3 > 100 µM | OVCAR-5 > 100 µM | PC-3 > 100 µM | RPMI-8226 57.9 µM | SF-539 > 100 µM | SNB-75 46.5 µM | SW-620 > 100 µM | TK-10 > 100 µM | UACC-257 > 100 µM | UACC-62 84.7 µM | UO-31 28.9 µM

Oc1ccc(Cl)cc1-c1cc(-c2ccccc2)nc(S)n1
inactive: 786-0 26.3 µM | HL-60 > 100 µM | KM12 92.5 µM | MCF7 > 100 µM | MDA-N > 100 µM | Malme-3M > 100 µM | NCI-H226 > 100 µM | NCI-H23 88.5 µM | OVCAR-3 > 100 µM | OVCAR-5 > 100 µM | PC-3 > 100 µM | RPMI-8226 > 100 µM | SF-539 42.6 µM | SNB-75 21.5 µM | SW-620 > 100 µM | TK-10 30.5 µM | UACC-257 > 100 µM | UO-31 24 µM
